≈ marks a conversion by molar mass, not a printed value.
Tested on: L1210
Experiment: Cytotoxicity against mouse L1210 cells after 72 hrs
Format: functional, cell-based
Conditions: L1210, 72 h

For `CCCCCCCCC[C@H]1NC(N)=N[C@@]2(CCCO2)[C@H]1C(=O)OCCCCCCCNC(=N)N` [CRAMBESCIN B], the IC50 was 1 µg/mL (≈ 2.08 µM).

— ChEMBL document CHEMBL1148034, “On the structures of crambescins B and C1” (J Nat Prod, 1993)
